Results reported in US20250114374A1, “BCL-2 INHIBITORS” (Newave Pharmaceutical Inc., priority 2021, published 2025).
Where two headings read alike, the source gives them in different places.

System: RS4; 11 with G101V mutation
Assay: In vitro anti-proliferation assay (ATPlite luminescence) in BCL-2-dependent ALL cell line RS4;11 with G101V mutation
Type: cell-based
Conditions: read-out: RS411-G101V IC50
How it was run: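 RS4;11 G101V cells at about 1×10^4 per well were exposed to a range of compound concentrations for about 72 h in medium with 10% FBS. Cellular ATP was measured by ATPlite luminescence after lysis, and IC50 was derived from the dose-response.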

[1] = cellular anti-proliferative IC50, about 72 hours, medium with 10% FBS, ATPlite

SMILES: CC(C)Oc1ccccc1[C@@H]1CN([C@H]2COCc3c(F)cc(F)cc32)CCN1C1CC2(CCN(c3ccc(C(=O)NS(=O)(=O)c4cc5c(c([N+](=O)[O-])c4)N[C@H](C4CCOCC4)CO5)c(N4c5cc6cc[nH]c6nc5O[C@H]5COCC[C@@H]54)c3)CC2)C1 [Example 230, 4-(2-((R)-4-((R)-6,8-difluoroisochroman-4-yl)-2-(2-isopropoxyphenyl)piperazin-1-yl)-7-azaspiro[3.5]nonan-7-yl)-N-(((R)-5-nitro-3-(tetrahydro-2H-pyran-4-yl)-3,4-dihydro-2H-benzo[b][1,4]oxazin-7-yl)sulfonyl)-2-((5aS,9aR)-6,7,9,9a-tetrahydro-1H-pyrano[3,4-b]pyrrolo[3′,2′:5,6]pyrido[3,2-e][1,4]oxazin-5(5aH)-yl)benzamide]
- IC50 (Homo sapiens, RS4-11, 72 h): 104 nM

SMILES: CC(C)Oc1ccccc1[C@@H]1CN([C@@H]2COCc3c(F)cc(F)cc32)CCN1C1CC2(CCN(c3ccc(C(=O)NS(=O)(=O)c4cc5c(c([N+](=O)[O-])c4)N[C@H](C4CCOCC4)CO5)c(N4c5cc6cc[nH]c6nc5O[C@H]5COCC[C@@H]54)c3)CC2)C1 [Example 231, 4-(2-((R)-4-((S)-6,8-difluoroisochroman-4-yl)-2-(2-isopropoxyphenyl)piperazin-1-yl)-7-azaspiro[3.5]nonan-7-yl)-N-(((R)-5-nitro-3-(tetrahydro-2H-pyran-4-yl)-3,4-dihydro-2H-benzo[b][1,4]oxazin-7-yl)sulfonyl)-2-((5aS,9aR)-6,7,9,9a-tetrahydro-1H-pyrano[3,4-b]pyrrolo[3′,2′:5,6]pyrido[3,2-e][1,4]oxazin-5(5aH)-yl)benzamide]
- IC50 (Homo sapiens, RS4-11, 72 h): 94.7 nM

SMILES: COc1cc2c(nc1N1CCOC[C@@H]1C)COC[C@H]2N1CCN(C2CC3(CCN(c4ccc(C(=O)NS(=O)(=O)c5cc6c(c([N+](=O)[O-])c5)N[C@H](C5CCOCC5)CO6)c(N5c6cc7cc[nH]c7nc6O[C@H]6COCC[C@@H]65)c4)CC3)C2)[C@H](c2ccccc2OC(C)C)C1 [Example 232, 4-(2-((R)-2-(2-isopropoxyphenyl)-4-((S)-3-methoxy-2-((S)-3-methylmorpholino)-5,8-dihydro-6H-pyrano[3,4-b]pyridin-5-yl)piperazin-1-yl)-7-azaspiro[3.5]nonan-7-yl)-N-(((R)-5-nitro-3-(tetrahydro-2H-pyran-4-yl)-3,4-dihydro-2H-benzo[b][1,4]oxazin-7-yl)sulfonyl)-2-((5aS,9aR)-6,7,9,9a-tetrahydro-1H-pyrano[3,4-b]pyrrolo[3′,2′:5,6]pyrido[3,2-e][1,4]oxazin-5(5aH)-yl)benzamide]
- IC50 (Homo sapiens, RS4-11, 72 h): 84.2 nM

SMILES: COc1cc2c(nc1N1CCOC[C@@H]1C)COC[C@@H]2N1CCN(C2CC3(CCN(c4ccc(C(=O)NS(=O)(=O)c5cc6c(c([N+](=O)[O-])c5)N[C@H](C5CCOCC5)CO6)c(N5c6cc7cc[nH]c7nc6O[C@H]6COCC[C@@H]65)c4)CC3)C2)[C@H](c2ccccc2OC(C)C)C1 [Example 233, 4-(2-((R)-2-(2-isopropoxyphenyl)-4-((R)-3-methoxy-2-((S)-3-methylmorpholino)-5,8-dihydro-6H-pyrano[3,4-b]pyridin-5-yl)piperazin-1-yl)-7-azaspiro[3.5]nonan-7-yl)-N-(((R)-5-nitro-3-(tetrahydro-2H-pyran-4-yl)-3,4-dihydro-2H-benzo[b][1,4]oxazin-7-yl)sulfonyl)-2-((5aS,9aR)-6,7,9,9a-tetrahydro-1H-pyrano[3,4-b]pyrrolo[3′,2′:5,6]pyrido[3,2-e][1,4]oxazin-5(5aH)-yl)benzamide]
- IC50 (Homo sapiens, RS4-11, 72 h): 4.64 nM

SMILES: CC(C)Oc1ccccc1[C@@H]1CN(Cc2ccc(F)c(F)c2)CCN1C1CC2(CCN(c3nc(N4c5cc6cc[nH]c6nc5O[C@H]5COCC[C@@H]54)c(C(=O)NS(=O)(=O)c4cc5c(c([N+](=O)[O-])c4)N[C@H](C4CCOCC4)CO5)cc3F)CC2)C1 [Example 234, 6-{2-[(2R)-4-[(3,4-difluorophenyl)methyl]-2-(2-isopropoxyphenyl)piperazin-1-yl]-7-azaspiro[3.5]nonan-7-yl}-2-[(3R,8S)-2,5-dioxa-9,15,17-triazatetracyclo[8.7.0.0^{3,8}.0^{12,16}]heptadeca-1(10),11,13,16-tetraen-9-yl]-5-fluoro-N-[(3R)-5-nitro-3-(oxan-4-yl)-3,4-dihydro-2H-1,4-benzoxazin-7-ylsulfonyl]pyridine-3-carboxamide]
- IC50 [1]: 181 nM

SMILES: CC(C)Oc1ccccc1[C@@H]1CN(Cc2ccc(F)c(F)c2)CCN1C1CC2(CCN(c3nc(N4c5cc6cc[nH]c6nc5O[C@H]5COCC[C@@H]54)c(C(=O)NS(=O)(=O)c4cc5c(c([N+](=O)[O-])c4)N[C@H](C4CCOCC4)CO5)cc3F)CC2)C1 [Example 235, 6-{2-[(2R)-4-[(3,4-difluorophenyl)methyl]-2-(2-isopropoxyphenyl)piperazin-1-yl]-7-azaspiro[3.5]nonan-7-yl}-2-[(3R,8S)-2,5-dioxa-9,15,17-triazatetracyclo[8.7.0.0^{3,8}.0^{12,16}]heptadeca-1(10),11,13,16-tetraen-9-yl]-5-fluoro-N-[(3R)-5-nitro-3-(oxan-4-yl)-3,4-dihydro-2H-1,4-benzoxazin-7-ylsulfonyl]pyridine-3-carboxamide]
- IC50 [1]: 2270 nM

SMILES: CC(C)Oc1ccccc1[C@@H]1CN(Cc2ccc(F)c(F)c2)CCN1C1CC2(CCN(c3ccc(C(=O)NS(=O)(=O)c4cc5c(c([N+](=O)[O-])c4)N[C@H](C4CCOCC4)CO5)c(N4c5cc6c(F)c[nH]c6nc5O[C@H]5COCC[C@@H]54)c3)CC2)C1 [Example 236, 4-{2-[(2R)-4-[(3,4-difluorophenyl)methyl]-2-(2-isopropoxyphenyl)piperazin-1-yl]-7-azaspiro[3.5]nonan-7-yl}-2-[(3R,8S)-13-fluoro-2,5-dioxa-9,15,17-triazatetracyclo[8.7.0.0^{3,8}.0^{12,16}]heptadeca-1(10),11,13,16-tetraen-9-yl]-N-[(3R)-5-nitro-3-(oxan-4-yl)-3,4-dihydro-2H-1,4-benzoxazin-7-ylsulfonyl]benzamide]
- IC50 [1]: 5.52 nM

SMILES: CC(C)Oc1ccccc1[C@@H]1CN(Cc2ccc(F)c(F)c2)CCN1C1CC2(CCN(c3ccc(C(=O)NS(=O)(=O)c4cc5c(c([N+](=O)[O-])c4)N[C@H](C4CCOCC4)CO5)c(N4c5cc6cc[nH]c6nc5O[C@@H]5COCC[C@H]54)c3)CC2)C1 [Example 239, 4-{2-[(2R)-4-[(3,4-difluorophenyl)methyl]-2-(2-isopropoxyphenyl)piperazin-1-yl]-7-azaspiro[3.5]nonan-7-yl}-2-[(3S,8R)-2,5-dioxa-9,15,17-triazatetracyclo[8.7.0.0^{3,8}.0^{12,16}]heptadeca-1(10),11,13,16-tetraen-9-yl]-N-[(3R)-5-nitro-3-(oxan-4-yl)-3,4-dihydro-2H-1,4-benzoxazin-7-ylsulfonyl]benzamide]
- IC50 [1]: 7.1 nM

SMILES: CC(C)Oc1ccccc1[C@@H]1CN(Cc2ccc(F)c(F)c2)CCN1C1CC2(CCN(c3ccc(C(=O)NS(=O)(=O)c4cc5c(c([N+](=O)[O-])c4)N[C@H](C4CCOCC4)CO5)c(N4c5cc6cc[nH]c6nc5O[C@H]5CCOC[C@@H]54)c3)CC2)C1 [Example 240, 4-{2-[(2R)-4-[(3,4-difluorophenyl)methyl]-2-(2-isopropoxyphenyl)piperazin-1-yl]-7-azaspiro[3.5]nonan-7-yl}-2-[(3S,8S)-5,9-dioxa-2,11,13-triazatetracyclo[8.7.0.0^{3,8}.0^{12,16}]heptadeca-1(10),11,14,16-tetraen-2-yl]-N-[(3R)-5-nitro-3-(oxan-4-yl)-3,4-dihydro-2H-1,4-benzoxazin-7-ylsulfonyl]benzamide]
- IC50 [1]: 6.94 nM

SMILES: CC(C)Oc1ccccc1[C@@H]1CN(Cc2ccc(F)c(F)c2)CCN1C1CC2(CCN(c3ccc(C(=O)NS(=O)(=O)c4cc5c(c([N+](=O)[O-])c4)N[C@H](C4CCOCC4)CO5)c(N4c5cc6cc[nH]c6nc5O[C@@H]5CCOC[C@H]54)c3)CC2)C1 [Example 241, 4-{2-[(2R)-4-[(3,4-difluorophenyl)methyl]-2-(2-isopropoxyphenyl)piperazin-1-yl]-7-azaspiro[3.5]nonan-7-yl}-2-[(3R,8R)-5,9-dioxa-2,11,13-triazatetracyclo[8.7.0.0^{3,8}.0^{12,16}]heptadeca-1(10),11,14,16-tetraen-2-yl]-N-[(3R)-5-nitro-3-(oxan-4-yl)-3,4-dihydro-2H-1,4-benzoxazin-7-ylsulfonyl]benzamide]
- IC50 [1]: 4.45 nM

SMILES: CC(C)Oc1ccccc1[C@@H]1CN([C@H](C)c2ccc(F)c(F)c2)CCN1C1CC2(CCN(c3ccc(C(=O)NS(=O)(=O)c4cc5c(c([N+](=O)[O-])c4)N[C@H](C4CCOCC4)CO5)c(N4c5cc6cc[nH]c6nc5O[C@H]5COCC[C@@H]54)c3)CC2)C1 [Example 242, 4-{2-[(2R)-4-[(1R)-1-(3,4-difluorophenyl)ethyl]-2-(2-isopropoxyphenyl)piperazin-1-yl]-7-azaspiro[3.5]nonan-7-yl}-2-[(3R,8S)-2,5-dioxa-9,15,17-triazatetracyclo[8.7.0.0^{3,8}.0^{12,16}]heptadeca-1(10),11,13,16-tetraen-9-yl]-N-[(3R)-5-nitro-3-(oxan-4-yl)-3,4-dihydro-2H-1,4-benzoxazin-7-ylsulfonyl]benzamide]
- IC50 [1]: 97.8 nM

SMILES: CC(C)Oc1ccccc1[C@@H]1CN([C@@H](C)c2ccc(F)c(F)c2)CCN1C1CC2(CCN(c3ccc(C(=O)NS(=O)(=O)c4cc5c(c([N+](=O)[O-])c4)N[C@H](C4CCOCC4)CO5)c(N4c5cc6cc[nH]c6nc5O[C@H]5COCC[C@@H]54)c3)CC2)C1 [Example 243, 4-{2-[(2R)-4-[(1S)-1-(3,4-difluorophenyl)ethyl]-2-(2-isopropoxyphenyl)piperazin-1-yl]-7-azaspiro[3.5]nonan-7-yl}-2-[(3R,8S)-2,5-dioxa-9,15,17-triazatetracyclo[8.7.0.0^{3,8}.0^{12,16}]heptadeca-1(10),11,13,16-tetraen-9-yl]-N-[(3R)-5-nitro-3-(oxan-4-yl)-3,4-dihydro-2H-1,4-benzoxazin-7-ylsulfonyl]benzamide]
- IC50 [1]: 22.2 nM
